Several values for one entry are separate records, joined by “and”; a condition that tells them apart may be missing. Identical values can stand only once.
Target: T1, human P2X4 (Homo sapiens, UniProt Q99571)
T1 sequence (Q99571 1-388): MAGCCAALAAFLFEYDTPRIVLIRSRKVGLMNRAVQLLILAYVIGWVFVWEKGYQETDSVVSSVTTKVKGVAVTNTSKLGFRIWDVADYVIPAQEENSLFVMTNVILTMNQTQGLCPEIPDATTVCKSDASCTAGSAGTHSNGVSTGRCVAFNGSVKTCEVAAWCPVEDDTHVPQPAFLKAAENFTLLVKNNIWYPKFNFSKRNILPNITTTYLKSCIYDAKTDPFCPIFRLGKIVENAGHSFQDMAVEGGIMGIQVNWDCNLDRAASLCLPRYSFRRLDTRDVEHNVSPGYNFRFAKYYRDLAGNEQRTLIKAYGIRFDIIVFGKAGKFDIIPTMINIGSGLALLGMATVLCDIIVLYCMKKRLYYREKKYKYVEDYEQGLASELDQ
Assay: Human P2X4 HEK Cell FLIPR Assay
Type: cell-based
Conditions: agonist Bz-ATP at EC80; for Emax: HEK293, HEK293 cells, percentage of maximal inhibition, read-out: Human P2X4 HEK Cells (FLIPR Assay) avg Efficacy [%]; for IC50: HEK293 cells, individual values listed where some fall outside detection range
In short: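 Calcium flux read by FLIPR for 120 sec after Bz-ATP challenge at EC80 (established each assay day), following 30 min room-temperature compound preincubation in dye-loaded stable human P2X4 HEK293 cells. Peak RFU over basal normalized to agonist control; IC50, maximal inhibition and Hill coefficient from triplicate means.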

| Compound | Emax | IC50 |
| --- | --- | --- |
| NS(=O)(=O)c1cc(NC(=O)Cc2ccc(Cl)cc2)ccc1-c1ccc(Cl)nc1 [Example 459, 2-(4-Chlorophenyl)-N-[4-(6-chloropyridin-3-yl)-3-sulfamoylphenyl]acetamide] | 88% | 1340 nM |
| NS(=O)(=O)c1cc(NC(=O)Cc2cccc(C(F)(F)F)c2Cl)c(C(F)(F)F)cc1-n1cc(F)cn1 [Example 536, 2-[2-Chloro-3-(trifluoromethyl)phenyl]-N-[4-(4-fluoro-1H-pyrazol-1-yl)-5-sulfamoyl-2-(trifluoromethyl)phenyl]acetamide] | 67% | 12400 nM and 16800 nM |
| NS(=O)(=O)c1cc(NC(=O)Cc2ccccc2OC(F)(F)F)ccc1-n1cc(Br)cn1 [Example 70, N-[4-(4-Bromo-1H-pyrazol-1-yl)-3-sulfamoylphenyl]-2-[2-(trifluoromethoxy)-phenyl]acetamide] | 85% | 118 nM |
| N#Cc1cnn(-c2ccc(NC(=O)Cc3ccccc3O)cc2S(N)(=O)=O)c1 [Example 193, N-[4-(4-Cyano-1H-pyrazol-1-yl)-3-sulfamoylphenyl]-2-(2-hydroxyphenyl)acetamide] | 84% | 427 nM |
| NS(=O)(=O)c1cc(NC(=O)Cc2c(Cl)cccc2C(F)(F)F)ccc1-n1cc(Cl)cn1 [Example 103, N-[4-(4-Chloro-1H-pyrazol-1-yl)-3-sulfamoylphenyl]-2-[2-chloro-6-(trifluoromethyl)-phenyl]acetamide] | 103% | 174 nM |
| N#Cc1cnn(-c2ccc(NC(=O)Cc3cc(O)ccc3Cl)cc2S(N)(=O)=O)c1 [Example 556, 2-(2-Chloro-5-hydroxyphenyl)-N-[4-(4-cyano-1H-pyrazol-1-yl)-3-sulfamoylphenyl]acetamide] | 94% | 65 nM |
| Cc1cccc(CC(=O)Nc2ccc(-n3cc(C#N)cn3)c(S(N)(=O)=O)c2)c1 [Example 198, N-[4-(4-Cyano-1H-pyrazol-1-yl)-3-sulfamoylphenyl]-2-(3-methylphenyl)acetamide] | 94% | 136 nM |
| NS(=O)(=O)c1cc(NC(=O)Cc2ccccc2Cl)ccc1-n1ccc(C(F)(F)F)n1 [Example 11, 2-(2-Chlorophenyl)-N-{3-sulfamoyl-4-[3-(trifluoromethyl)-1H-pyrazol-1-yl]phenyl}-acetamide] | 31% | > 25000 nM |
| NS(=O)(=O)c1cc(NC(=O)Cc2ccccc2F)ccc1-c1cnn(C2CC2)c1 [Example 344, N-[4-(1-Cyclopropyl-1H-pyrazol-4-yl)-3-sulfamoylphenyl]-2-(2-fluorophenyl)-acetamide] | 102% | 44 nM |
| NS(=O)(=O)c1cc(NC(=O)Cc2cc(C(F)(F)F)ccc2Cl)c(C(F)(F)F)cc1-n1cc(C(F)(F)F)cn1 [Example 534, 2-[2-Chloro-5-(trifluoromethyl)phenyl]-N-{5-sulfamoyl-2-(trifluoromethyl)-4-[4-(trifluoromethyl)-1H-pyrazol-1-yl]phenyl}acetamide] | 17% | > 25000 nM |
| NS(=O)(=O)c1cc(NC(=O)Cc2ccccc2Cl)ccc1-n1cc(-c2ccncn2)cn1 [Example 404, 2-(2-Chlorophenyl)-N-{4-[4-(pyrimidin-4-yl)-1H-pyrazol-1-yl]-3-sulfamoylphenyl}acetamide] | 73% | 175 nM |
| NS(=O)(=O)c1cc(NC(=O)Cc2ccccc2Cl)ccc1-n1ccc(C2CC2)n1 [Example 252, 2-(2-Chlorophenyl)-N-[4-(3-cyclopropyl-1H-pyrazol-1-yl)-3-sulfamoylphenyl]-acetamide] | 88% | 808 nM |
| Cc1ccc(F)c(CC(=O)Nc2ccc(-n3cc(C#N)cn3)c(S(N)(=O)=O)c2)c1Cl [Example 207, 2-(2-Chloro-6-fluoro-3-methylphenyl)-N-[4-(4-cyano-1H-pyrazol-1-yl)-3-sulfamoylphenyl]acetamide] | 98% | 12 nM |
| Cc1c(-c2ccc(NC(=O)Cc3ccccc3Cl)cc2S(N)(=O)=O)cnn1-c1ccccc1 [Example 363, 2-(2-Chlorophenyl)-N-[4-(5-methyl-1-phenyl-1H-pyrazol-4-yl)-3-sulfamoylphenyl]-acetamide] | 110% | 108 nM |
| NS(=O)(=O)c1cc(NC(=O)Cc2ccc(O)cc2)ccc1-n1cc(Cl)cn1 [Example 86, N-[4-(4-Chloro-1H-pyrazol-1-yl)-3-sulfamoylphenyl]-2-(4-hydroxyphenyl)acetamide] | 97% | 353 nM |
| NS(=O)(=O)c1cc(NC(=O)Cc2ccccc2Cl)ccc1-c1nnc(C(F)F)o1 [Example 522, 2-(2-Chlorophenyl)-N-{4-[5-(difluoromethyl)-1,3,4-oxadiazol-2-yl]-3-sulfamoylphenyl}acetamide] | 87% | 71 nM |
| NS(=O)(=O)c1cc(NC(=O)Cc2c(F)cccc2Cl)ccc1-c1ccc(Cl)nc1 [Example 461, 2-(2-Chloro-6-fluorophenyl)-N-[4-(6-chloropyridin-3-yl)-3-sulfamoylphenyl]acetamide] | 93% | 137 nM |
| NS(=O)(=O)c1cc(NC(=O)Cc2ccccc2Cl)ccc1-n1cnc(C(F)(F)F)c1 [Example 10, 2-(2-Chlorophenyl)-N-{3-sulfamoyl-4-[4-(trifluoromethyl)-1H-imidazol-1-yl]phenyl}-acetamide] | 81% | 7 nM |
| NS(=O)(=O)c1cc(NC(=O)Cc2cccc(F)c2)ccc1-n1cc(F)cn1 [Example 144, 2-(3-Fluorophenyl)-N-[4-(4-fluoro-1H-pyrazol-1-yl)-3-sulfamoylphenyl]acetamide] | 62% | 292 nM |
| NS(=O)(=O)c1cc(NC(=O)Cc2ccccc2Cl)ccc1-c1ccccc1 [Example 266, 2-(2-Chlorophenyl)-N-(2-sulfamoylbiphenyl-4-yl)acetamide] | 94% | 7 nM |
| NS(=O)(=O)c1cc(NC(=O)Cc2ccccc2Cl)ccc1-c1cnc(C(F)F)s1 [Example 429, 2-(2-Chlorophenyl)-N-{4-[2-(difluoromethyl)-1,3-thiazol-5-yl]-3-sulfamoylphenyl}acetamide] | 91% | 108 nM |
| CCCNc1ncc(-c2ccc(NC(=O)Cc3ccccc3Cl)cc2S(N)(=O)=O)cn1 [Example 314, 2-(2-Chlorophenyl)-N-{4-[2-(propylamino)pyrimidin-5-yl]-3-sulfamoylphenyl}-acetamide] | 83% | 27 nM |
| NS(=O)(=O)c1cc(NC(=O)Cc2ccccc2Cl)ccc1-c1cnc(C(F)(F)F)nc1 [Example 306, 2-(2-Chlorophenyl)-N-{3-sulfamoyl-4-[2-(trifluoromethyl)pyrimidin-5-yl]phenyl}acetamide] | 80% | 278 nM |
| COc1ccc(CC(=O)Nc2ccc(-c3ccc(Cl)nc3)c(S(N)(=O)=O)c2)c(F)c1 [Example 472, N-[4-(6-Chloropyridin-3-yl)-3-sulfamoylphenyl]-2-(2-fluoro-4-methoxyphenyl)acetamide] | 97% | 197 nM |
| NS(=O)(=O)c1cc(NC(=O)Cc2ccccc2Cl)ccc1-n1cc(NC(=O)CC(F)(F)F)cn1 [Example 507, N-[1-(4-{[(2-Chlorophenyl)acetyl]amino}-2-sulfamoylphenyl)-1H-pyrazol-4-yl]-3,3,3-trifluoropropanamide] | 86% | 180 nM |

Reference: US11524938B2, “Aromatic sulfonamide derivatives” (Bayer Pharma Aktiengesellschaft, priority 2016, dated 2022)
